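Tested at 5 concentrations; 48 h exposure; 96-well plates; endpoints linearly interpolated, else capped at highest concentration. GI50 = concentration required for 50% inhibition of growth.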 Active and inactive are the calls of the source. No stated cut-off is given here; in the data, active = GI50 up to about 1.1 µM and inactive = higher.
Experiments:
Assay in all cases: NCI tumour cell line growth inhibition, 48 h
[1] = system: SNB-19
[2] = system: UACC-62
[3] = system: SF-295
[4] = system: OVCAR-8
[5] = system: MOLT-4
[6] = system: U-251
[7] = system: HCT-116
[8] = system: HOP-92
[9] = system: UO-31
[10] = system: M14
[11] = system: NCI-H460
[12] = system: IGROV-1
[13] = system: OVCAR-3
[14] = system: SK-MEL-5
[15] = system: OVCAR-4
[16] = system: EKVX
[17] = system: RXF 393

Measured: GI50

CCCCCCCCOCC(O)COC (stereo not given)
inactive: [1] > 100 µM | [2] > 100 µM | [3] > 100 µM | [4] > 100 µM | [5] > 100 µM | [6] > 100 µM | [7] > 100 µM | [8] 82.6 µM | [9] > 100 µM | [10] > 100 µM | [11] > 100 µM | [12] > 100 µM | [13] 94.6 µM | [14] > 100 µM | [15] > 100 µM

COc1cc2cnc3c4cc(OC(C)C)c(OC)cc4ccc3c2cc1OC
inactive: [1] > 100 µM | [2] > 100 µM | [3] > 100 µM | [16] > 100 µM | [4] > 100 µM | [5] > 100 µM | [6] > 100 µM | [7] > 100 µM | [9] > 100 µM | [10] > 100 µM | [11] > 100 µM | [12] > 100 µM | [13] > 100 µM | [14] > 100 µM | [15] > 100 µM

O=C(/C(=C/c1ccc(Cl)cc1)c1ccccc1)c1ccccc1
inactive: [2] 15.6 µM | [3] 18.8 µM | [16] 26.5 µM | [4] 20.3 µM | [5] 17.8 µM | [6] 17 µM | [7] 13.6 µM | [8] 13.9 µM | [9] 27 µM | [10] 16.3 µM | [11] 17.7 µM | [12] 18.7 µM | [15] 18 µM

N#CC1CC2(C1)OCCS2 (stereo not given)
inactive: [1] > 100 µM | [2] > 100 µM | [3] > 100 µM | [16] > 100 µM | [4] > 100 µM | [5] > 100 µM | [6] > 100 µM | [7] > 100 µM | [9] > 100 µM | [10] > 100 µM | [11] > 100 µM | [12] > 100 µM | [13] > 100 µM | [17] > 100 µM | [15] > 100 µM

C/C(CN1C(=O)c2ccccc2C1=O)=N\NS(=O)(=O)c1cccc([N+](=O)[O-])c1
inactive: [1] > 100 µM | [2] > 100 µM | [3] > 100 µM | [16] > 100 µM | [4] > 100 µM | [5] > 100 µM | [6] > 100 µM | [7] > 100 µM | [9] > 100 µM | [10] > 100 µM | [11] > 100 µM | [12] > 100 µM | [13] > 100 µM | [17] > 100 µM | [14] > 100 µM | [15] > 100 µM

CCC1(C(=O)OC)CCc2c(OC)ccc(OC)c2C1=O (stereo not given)
inactive: [1] > 100 µM | [2] > 100 µM | [3] > 100 µM | [16] > 100 µM | [4] > 100 µM | [5] > 100 µM | [6] > 100 µM | [7] > 100 µM | [9] > 100 µM | [10] > 100 µM | [11] > 100 µM | [12] > 100 µM | [13] > 100 µM | [14] > 100 µM | [15] > 100 µM

CCC12CC[C@H](C#N)N3CCc4c(n(c5ccccc45)C(=O)C1)C32 (stereo not given in full)
inactive: [1] > 10 µM | [2] 12.2 µM | [3] 12.4 µM | [16] 23 µM | [4] 19.9 µM | [5] 15 µM | [6] 16.3 µM | [7] 13.9 µM | [9] 3.1 µM | [10] 16.4 µM | [11] 13.3 µM | [12] 24.8 µM | [13] 13.3 µM | [17] 13.3 µM | [14] 12.7 µM | [15] 12.1 µM
